Results from article PMC10559868, “Spectroscopic study and molecular simulation: Bovine serum albumin binding with anticancer Pt complex of amyl dithiocarbamate ligand” (Heliyon, 2023).

Target: T1, Bovine serum albumin (BSA) (Bos taurus, UniProt P02769)
T1 construct: gene ALB
Settings: read-out: Kb M^-1))

T1 sequence (P02769 25-607): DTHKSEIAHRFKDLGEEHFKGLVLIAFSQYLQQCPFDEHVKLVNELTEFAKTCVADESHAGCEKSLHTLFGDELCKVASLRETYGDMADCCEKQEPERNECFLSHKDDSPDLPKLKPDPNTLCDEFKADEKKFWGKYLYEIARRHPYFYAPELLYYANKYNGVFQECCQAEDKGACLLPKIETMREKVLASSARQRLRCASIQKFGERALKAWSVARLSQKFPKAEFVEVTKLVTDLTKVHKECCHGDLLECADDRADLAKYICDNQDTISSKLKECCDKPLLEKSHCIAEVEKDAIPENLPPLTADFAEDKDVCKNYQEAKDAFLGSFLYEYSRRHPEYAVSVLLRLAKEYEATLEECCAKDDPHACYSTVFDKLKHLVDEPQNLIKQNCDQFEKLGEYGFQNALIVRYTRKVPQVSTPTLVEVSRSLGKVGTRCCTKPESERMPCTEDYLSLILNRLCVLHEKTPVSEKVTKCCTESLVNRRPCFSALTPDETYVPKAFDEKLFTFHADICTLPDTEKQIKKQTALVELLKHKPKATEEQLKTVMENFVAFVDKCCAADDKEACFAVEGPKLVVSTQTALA

CCCCCNC1=[S+][Pt-2]2([S]1)[n+]1ccccc1-c1cccc[n+]12 [[Pt(bpy)(amyl.dtc)]NO3]
Kd: 148 µM
